The text below walks through data of article doi:10.1101/2024.05.17.594634, “Protein Structure Inspired Drug Discovery” (bioRxiv, 2024).

The subject of data set [1] is M14 cells. Description: Cell cycle analysis by flow cytometry, M14. In kind it is cell-based, human. As to conditions: 20 nM, eight days. As for the experimental part:
(§1) Fig 8. Dxr2-017 inhibits melanoma cell growth through induction of anoikis. (A) Inhibition of melanoma cell growth. Cells were treated with different concentrations of Dxr2-017 and formation of colonies at eight days depicted. Data are expressed as percent of untreated control and are the mean ± SEM (N=3 replicates) of a single experiment. (B) No effect on cycle progression. M14 and SK-MEL-5 cells were treated for 8 days with 20 and 50 nM Dxr2-017, respectively, and phase of cell cycle determined by flow cytometry. Data are the mean ± SEM (N=3). *denotes P-value ≤0.05. (C) Transition to floating cells. Cells were treated for three days with different Dxr2-017 concentrations. Depicted are representative light photomicrographs at 20X; scale bar is150 μm. Blue and green arrows denote adherent and floating cells, respectively. (D) Cleaved caspase 3 is induced in floating cells. Cells were treated for 3 days, cell lysate from only adherent cells, or from adherent and floating cells combined, was probed by Western blot for cleaved caspase 3. All experiments were repeated at separate times, yielding similar results.
A total of 1 × 10^4 M14 cells and 1 × 10^4 SK-MEL-5 cells were seeded into 10 cm culture dishes. […] Cells were analyzed by flow cytometry (FACSCalibur3 analyzer, BD Biosciences), and the percentage of cells within G0/G1, S, and G2/M phases were determined via analysis using Modfit LT 4.0.5.

Data set [2] deals with human CD34+ stem cells. Description: Bone marrow stem cell (hematopoietic) colony formation assay. In kind it is cell-based. As for the experimental part: In parallel with measuring growth inhibition of cancer cell growth, we measured effect on human hematopoietic stem cells. Hematopoietic stem cells reside in the bone marrow and are the source of mature cells present in blood.[66] Bone marrow is one of the most sensitive organs in the body to drug toxicity, especially so for anticancer drugs where it can approach 100%.[67–69] Bone marrow toxicity was measured by performing hematopoietic colony formation assays on human CD34+ stem cells. The stem cell nature of this assay permitted assessment of trilineage colony formation: granulocytic (white blood cells), erythrocytic (red blood cells) and megakaryocytic (platelets), measured by the formation of CFU-GM (colony-forming-granulocyte-macrophage), BFU-E (erythroid burst-forming unites) and CFU-GEMM (colony-forming unit-granulocyte, erythrocyte, monocyte, megakaryocyte) colonies, respectively. Two measurements were taken. Total colonies at eight days were measured, thereby matching the eight-day time frame of cancer cell colony formation assays. At fourteen days, individual colonies have differentiated, permitting quantification of each lineage. Human hematopoietic stem cell trilineage colony formation assays were performed as previously described by us.[65] Briefly, human cord blood CD34+ cells (catalog #: 70008.5) were purchased from StemCell Technology Inc., and seeded at 1 × 10^4 cells per 35 mm dish. Cells were cultured in MethoCult™ Express (StemCell Technologies, Inc.) semisolid media, per manufacturer’s instructions, in the presence of compound or vehicle control. At eight days colonies, i.e., groups of ≥ 10 cells, were counted. At fourteen days, individual colonies of BFU-E, CFU-GM and CFU-GEMM were identified based on manufacturers’ morphologic characterization criteria. Assays were run in replicates of N = 2; some were run in replicates of N = 3, as denoted.

For data set [3], the system named is A549 lung cancer cells. The data set is described as follows: Eight-day colony formation assay, A549. The format is cell-based, human. As for the experimental part: (§2) We sought to identify compounds that would inhibit the growth of cancer cells, but that also did so selectively. Inhibition of cancer cell growth is a highly sought after attribute of anticancer agents. This was assessed by measuring the ability of a compound to inhibit cell growth in eight-day colony formation assays, examining concentrations ranging from 0.017 to 40 μM. Breast, colon, lung and prostate cancer are four of the most common causes of cancer in the United States, are major causes of cancer cell death, and were examined.[64] Two cell lines for each cancer type were assessed: A549 (adenocarcinoma) and H226 (squamous carcinoma) for lung, MCF-7 (estrogen receptor [ER] positive) and MDA-MB-231 (ER negative) for breast, LNCaP (androgen receptor [AR] positive) and PC3-M (AR negative) for prostate, and HCT116 (wild type p53, mutated KRAS) and HT29 (p53 mutant) for colon.[65]
(§3) In considering effect on cancer cells, for each compound and each cell line tested we calculated the efficacy ratio, i.e., efficacy ratio = (percent of remaining cancer cell colonies)/(percent of remaining bone marrow colonies), at 8 days after treatment with 40 μM compound (S4 Fig). We considered those with an efficacy ratio below 0.5 as active and at least partially selective. The stringency of this is highlighted by considering the effect of 5FU on colon cancer, where it is frequently used clinically in proven curative settings, as well as proven life prolonging settings.[70, 71] […] Even at 5.7 μM, where 5FU is toxic to bone marrow, with hematopoietic colony formation at 38% of control, the efficacy ratio for HT29 cells has only dropped to 0.52. […] It can be seen that compounds segregate to protein sites. Specifically, of 10 compounds meeting this activity criteria (i.e., efficacy ratio <0.5), 3 were directed at the Dxr2 site, 3 at FolC2, 2 at FolC1, 1 at Dxr1 and 1 at TYLT.
(§4) Eight-day colony formation assays of cancer cells were performed as described by us.[87] Briefly, 0.5–1.0 × 10^3 cells were seeded into a 12 well plate, after 24 hours compound added and eight days later colonies (of 3 or more cells) were scored after trypan blue staining. Conditions were in replicates of N = 2. All compounds were stored under desiccated conditions in a sealed container at minus 20°C upon arrival. One day prior to use, they were placed into DMSO, stored at […] as stock solutions, thawed just prior to use, and not reused.

For data set [4], the system named is H226 lung cancer cells. The data set is described as follows: Eight-day colony formation assay, H226. The format is cell-based, human. As to the method:
as §2, §3, §4

Data set [5] has as its system LNCaP prostate cancer cells. Description: Eight-day colony formation assay, LNCaP. The format is cell-based, human. As for the experimental part: as §2, §3, §4
The test system of data set [6] is human melanoma M14 cells. The data set is described as follows: Eight-day colony formation assay, M14. In kind it is cell-based. As to conditions: for IC50: M14, eight-day assay, mean ± SEM. As to the method: We next evaluated the effect of Dxr2-017 on human melanoma M14 and SK-MEL-5 cell lines in eight-day assays (Fig 8A).
as §1, §4

As for `c1ccc2sc(-c3ccc(CNc4ccc5nnnn5n4)o3)nc2c1` [Dxr2-017], the “change in cell cycle parameters” value in data set [1] was “little-to-no change in cell cycle parameters”. The “mean number of colonies, % of control, 14 day” value in data set [2] (40 μM compound, 14 days, mean N=2) is on record as 57 % of control. Further, the “mean number of colonies, % of control, 8 day” value in data set [2] (40 μM compound, total colonies at 8 days, mean N=2) was 70 % of control. In addition, in data set [2] (40 μM, 14 day), the “decrease of BFU-E compared to control” value is 97.1 ± 4.1%. Besides, the “decrease of CFU-G/M compared to control” value in data set [2] (40 μM, 14 day) was determined as 49.8 ± 0.0%. The “increase of CFU-GEMM compared to control” value in data set [2] (40 μM, 14 day) was 16.1 ± 12.0%. Also, the “inhibition of 14-day total colony formation” value in data set [2] (40 μM, 14 day) is recorded as 42.6 ± 5.8%. For the same compound, the “efficacy ratio (cancer cell colonies to bone marrow colonies at 8 days)” value in data set [3] (5.7 μM) came out at 1.26; in data set [3] (40 μM), 0.07; in data set [4] (5.7 μM) it was 0.12; in data set [4] (40 μM) it was 0.02; in data set [5] (5.7 μM) it was 0.49; in data set [5] (40 μM) it was 0.05. The IC50 in data set [6] (Homo sapiens, M14, 192 h) came out at 19 nM; in data set [6], 19.7 ± 7.4 nM. The “fold efficacy versus bone marrow stem cells” value in data set [6] (M14 IC50 compared to 40 μM eight-day bone marrow treatment) is “over 2100 fold”.
